The source of these data is patent publication US20240302387A1, “HIGHLY FLUORINATED COMPOUNDS FOR 19F MRI-BASED THERMOMETRY” (Regents of the University of Minnesota, priority 2023, published 2024).

What all share (assay type): physicochemical
A short description of data set [1]: 19F NMR aqueous solubility limit measurement. The following applies: for solubility: pH 6.9, aqueous with cosolvent or surfactant or cyclodextrin, kinetic from dmso stock. As to the method: ^19F NMR Aqueous Solubility Limit Measurements: Compound was dissolved in DMSO and then added to 10 mM pH=6.9 phosphate buffer/D2O (9:1 v/v) to make 5% DMSO stock in 500 μL phosphate buffer/D2O at concentration of 10/50/100/150/200/250 μM. Samples were measured with Bruker AVANCE III 500@ equipped with a 5 mm BBFO SmartProbe®. ^19F spectra were obtained at 471 MHz with dummy scans=4, acquisition time=0.57 s, delay time =1 s, […], and the number of scans=800 UV-Visible Spectra: Stock solutions of DD-1, DD-3, and DD-5 were prepared at 10 mM in DMSO and stored in the dark. A 10 mM phosphate buffer at pH=7 was prepared and stock solutions were diluted to 50 μM. UV-visible absorption spectra were obtained using a Horiba Aqualog®.

A short description of data set [2]: Phase at room temperature. Here is the method:
All seven organofluorine temperature sensors of Table 1a were synthesized under the optimized reaction conditions for enabling facile synthesis in the following General Scheme and Examples. Specifically, temperature sensors DD1-DD7 were prepared through an SNAr reaction. Compounds DD-2 and DD-4 required one extra oxidation of DD-1 and DD-3 to provide the respective sulfones. Yields of the SNAr reactions using thiol, HS—(CF2)7—CF3, were low […], while the yields with HS—CH2CH2CH2CF2CF3 fell in the range of […].

The nature of data set [3]: Quantitative 19F NMR fluorine mass balance after photolysis (solar simulator). As to the method: (§1) Quantitative ^19F NMR was conducted to determine if any of the fluorinated functional groups were susceptible to degradation. The environmental persistence and potential impact of these fluorinated temperature sensors will be a function of not only the persistence of the parent compound, but also that of any fluorinated reaction products. Photolysis and ozonation represent natural and engineered processes, respectively, that could degrade these compounds after their use and introduction into the water system.
(§2) ^19F NMR spectra were taken to quantify and partition degradation products from the parent compound signals for photolysis and ozonation (FIG. 7). […] The solutions analyzed contained 50 μM of DD-1 with 14 fluorine atoms, thus a total fluorine concentration of 700 μM, with 200 μM attributed to the aromatic fluorines (Ar—F; −137.04 ppm), 200 μM attributed to the CF2 (−121.34 ppm), and 300 μM attributed to the CF3 (−89.14 ppm) as shown in FIG. 7. […] Top: regional spectrum of untreated DD-1. Middle: regional spectrum of DD-1 degraded by solar simulator. Bottom: regional spectrum of DD-1 degraded by ozone. (left) Spectra of CF3 region. (middle) Spectra of CF2 region. (right) Spectra of Ar—F region. For photolysis and ozonation, 61% and 87% the parent Ar—F signal was lost respectively. A peak at ˜139.1 ppm appeared following ozonation and is hypothesized to be a hydroxylated aromatic ring product, which is a known reaction process for aromatics during ozonation (Vialaton, D., et al (1998) J Photochem Photobiol A Chem 119 (1):39-45). For the parent CF2, the signal decreased by 45% and 79%, but new CF2 products appeared upfield. Under both degradative conditions, new peaks appear in the near regions of the CF2, likely due to ring opening processes. […] For the parent CF3, the signal decreased by 38% and 69%, again with new CF3 products appearing upfield. An excess of 39 μM and 48 μM fluorine for the solar simulator and ozonation, respectively, was found within the CF3 region. These groups are hypothesized to be products produced by opening of the aromatic ring, which could be vinyl fluorines with oxygen and/or sulfur substituents.
Photolysis Experiments: Stock solutions were diluted to 10 μM in the phosphate buffer for kinetic experiments and 50 μM for ^19F NMR experiments. Solutions were placed in 10 mL quartz tubes sealed with cork stoppers with no contact to the solution. The solutions were photolyzed in (i) an Atlas Suntest CPS+® solar simulator with a 1500 W xenon lamp at an intensity of 765 W m-2 using a wavelength range of 290-800 nm at a 30° angle, and (ii) a 450 W medium pressure polychromatic mercury vapor lamp with a quartz immersion well with cooling water circulation, a Pyrex 280 nm cutoff filter (Ace Glass), and a merry-go-round sample holder. Samples were photolyzed until ˜60 to 80% degradation of the parent compound was achieved. For each compound an equivalent tube was prepared and wrapped in aluminum foil as a dark control. Experiments were performed in triplicate

Data set [4] can be described thus: Direct photolysis kinetics and quantum yield, solar simulator. The following applies: for quantum yield of direct photolysis: 10 mM pH 7 phosphate buffer.
Data set [5] can be described thus: Quantitative 19F NMR fluorine mass balance after ozonation. As to the method:
as §1, §2
Ozone-mediated Degradation: The 10 mM DMSO stock solution of DD-1 was used to make 100 mL of a 50 μM solution in the 10 mM pH=7 phosphate buffer. The solution was placed in an Erlenmeyer flask in an ice bath. Ozone (O3) was produced using ultra-high pure oxygen gas (99.99%) with a Pacific Ozone O3 generator and bubbled directly into the sample solution. O3 concentration was previously measured using UV-Vis spectroscopy (Beckman Coulter DU 530). The concentration of O3 (with an ε=3000 M^−1 cm^−1) was determined by direct absorbance at 258 nm. By using a 3:1 dilution, the absorbance obtained is equivalent to the O3 concentration in mM. After 30 minutes the O3 concentration in ultrapure water was 0.61 mM or 29.16 mg/L. Samples were taken over time for 300 minutes and parent compound degradation was monitored via HPLC.

Data set [6] is described as follows: Direct photolysis kinetics, mercury vapor lamp.

“Also recorded” adds a separate entry of the source. Where two headings read alike, the source gives them in different places.

Broadly, the solubility is the dissolved amount per volume that the medium holds. A high value points to a readily soluble substance.

Consider `FC(F)(F)C(F)(F)C(F)(F)C(F)(F)N(C(F)(F)C(F)(F)C(F)(F)C(F)(F)F)C(F)(F)C(F)(F)C(F)(F)C(F)(F)F` [CC-1, perfluorotributylamine, reference compound], for which the “water solubility (in words)” value in data set [1] is “limited water solubility”. Also, the Phase result is on record as “liquid” in data set [2] and “solid at room temperature” in data set [2] (listed as CC-1 PFTBA).

`Fc1c(F)c(-c2c(F)c(F)c(SCCC(F)(F)C(F)(F)C(F)(F)C(F)(F)C(F)(F)C(F)(F)C(F)(F)C(F)(F)F)c(F)c2F)c(F)c(F)c1SCCC(F)(F)C(F)(F)C(F)(F)C(F)(F)C(F)(F)C(F)(F)C(F)(F)C(F)(F)F` [CC-2, (perfluoro-[1,1′-biphenyl]-4,4′-diyl)bis((3,3,4,4,5,5,6,6,7,7,8,8,9,9,10,10,10-heptadecafluorodecyl)sulfane), reference compound]: the Phase result in data set [2] was “solid”.

Take `Fc1c(F)c(SCCC(F)(F)C(F)(F)C(F)(F)C(F)(F)C(F)(F)C(F)(F)C(F)(F)C(F)(F)F)c(F)c(F)c1SCCC(F)(F)C(F)(F)C(F)(F)C(F)(F)C(F)(F)C(F)(F)C(F)(F)C(F)(F)F` [CC-3, (perfluoro-1,4-phenylene)bis((3,3,4,4,5,5,6,6,7,7,8,8,9,9,10,1 0,10-heptadecafluorodecyl)sulfane), reference compound]: the Phase entry in data set [2] was “solid”.

With `Fc1c(F)c(SCCCC(F)(F)C(F)(F)F)c(F)c(F)c1SCCCC(F)(F)C(F)(F)F` [DD-1, (perfluoro-1,4-phenylene)bis((4,4,5,5,5-pentafluoropentyl)sulfane)], in data set [1], the solubility was at most 200 µM. Besides, in data set [3] (photolysis, 50 μM), the “Fluoride (F−) production” value is 79 µM, the “parent Ar—F 19F NMR signal lost” value is on record as 61%, the “parent CF2 signal decrease” value is 45% and the “parent CF3 signal decrease” value is 38%. In addition, in data set [3] (photolysis, initial Ar—F 200 μM), the “sum of fluorine concentrations for Ar—F, F− and ring opening products/vinyl F” value was 198 µM. In addition, the “excess fluorine found within the CF3 region” value in data set [3] (solar simulator, 50 μM) was 39 µM. In addition, the “quantum yield of direct photolysis” value in data set [4] is 0.0272 mol Ei^−1. Besides, the Phase result in data set [2] is reported as “liquid phase at room temperature”. In addition, the “sum of fluorine concentrations for Ar—F, F− and ring opening products/vinyl F” value in data set [5] (O3, initial Ar—F 200 μM) worked out at 200 µM. Also, in data set [5] (ozonation, 50 μM), the “Fluoride (F−) production” value stood at 117 µM, the “excess fluorine found within the CF3 region” value came to 48 µM, the “parent Ar—F 19F NMR signal lost” value was determined as 87% and the “parent CF2 signal decrease” value is 79%. Besides, in data set [5] (ozonation, 50 μM), the “parent CF3 signal decrease” value is listed as 69%.

As to `O=S(=O)(CCCC(F)(F)C(F)(F)F)c1c(F)c(F)c(S(=O)(=O)CCCC(F)(F)C(F)(F)F)c(F)c1F` [DD-2, 1,2,4,5-tetrafluoro-3,6-bis((4,4,5,5,5-pentafluoropentyl)sulfonyl) benzene], the Phase entry in data set [2] is reported as “white solids; also recorded: solid”.

Compound `Fc1c(F)c(-c2c(F)c(F)c(SCCCC(F)(F)C(F)(F)F)c(F)c2F)c(F)c(F)c1SCCCC(F)(F)C(F)(F)F` [DD-3, (perfluoro-[1,1′-biphenyl]-4,4′-diyl)bis((4,4,5,5,5-pentafluoropentyl)sulfane)] returned a solubility in data set [1] of at most 200 µM. Also, the “quantum yield of direct photolysis” value in data set [4] was 0.0267 mol Ei^−1. Also, the Phase entry in data set [2] is recorded as “liquid phase at room temperature”.

For the compound `O=S(=O)(CCCC(F)(F)C(F)(F)F)c1c(F)c(F)c(-c2c(F)c(F)c(S(=O)(=O)CCCC(F)(F)C(F)(F)F)c(F)c2F)c(F)c1F` [DD-4, 2,2′,3,3′,5,5′,6,6′-octafluoro-4,4′-bis((4,4,5,5,5-pentafluoropentyl)sulfonyl)-1,1′-biphenyl], the Phase result in data set [2] is “solid”.

`Fc1c(F)c(Sc2c(F)c(F)c(SCCCC(F)(F)C(F)(F)F)c(F)c2F)c(F)c(F)c1SCCCC(F)(F)C(F)(F)F` [DD-5, bis(2,3,5,6-tetrafluoro-4-((4,4,5,5,5-pentafluoropentyl)thio)phenyl)sulfane]: the “rank of photolysis rate constant” value in data set [6] was “fastest”. Moreover, in data set [4], the “rank of photolysis rate constant” value is given as “fastest” and the “quantum yield of direct photolysis” value is on record as 0.0520 mol Ei^−1. The Phase result in data set [2] is listed as “solid”.

Take `O=S(=O)(c1c(F)c(F)c(SCCCC(F)(F)C(F)(F)F)c(F)c1F)c1c(F)c(F)c(SCCCC(F)(F)C(F)(F)F)c(F)c1F` [DD-6, (sulfonylbis(2,3,5,6-tetrafluoro-4,1-phenylene))bis((4,4,5,5,5-pentafluoropentyl)sulfane)]: the Phase entry in data set [2] is “solid”.
